From article PMC11027099 (ACS Chemical Neuroscience, 2024) come the findings set out here.

Broadly, the EC50 is the concentration that produces a half-maximal response. The low end stands for a more potent agent, the high end for a less potent agent.

Read-outs that look alike come from different tables or passages of the source.

Assay [1] has as its target T1, cone CNG channel (CNGA3/CNGB3) (Homo sapiens, UniProt Q16281+Q9NQW8).
T1 construct: heterotetramer 3 CNGA3 : 1 CNGB3; subunits in pGEMHE, cRNA ratio 1:2.5, expressed in Xenopus laevis oocytes; inside-out patches
T1 sequence (Q16281 1-694): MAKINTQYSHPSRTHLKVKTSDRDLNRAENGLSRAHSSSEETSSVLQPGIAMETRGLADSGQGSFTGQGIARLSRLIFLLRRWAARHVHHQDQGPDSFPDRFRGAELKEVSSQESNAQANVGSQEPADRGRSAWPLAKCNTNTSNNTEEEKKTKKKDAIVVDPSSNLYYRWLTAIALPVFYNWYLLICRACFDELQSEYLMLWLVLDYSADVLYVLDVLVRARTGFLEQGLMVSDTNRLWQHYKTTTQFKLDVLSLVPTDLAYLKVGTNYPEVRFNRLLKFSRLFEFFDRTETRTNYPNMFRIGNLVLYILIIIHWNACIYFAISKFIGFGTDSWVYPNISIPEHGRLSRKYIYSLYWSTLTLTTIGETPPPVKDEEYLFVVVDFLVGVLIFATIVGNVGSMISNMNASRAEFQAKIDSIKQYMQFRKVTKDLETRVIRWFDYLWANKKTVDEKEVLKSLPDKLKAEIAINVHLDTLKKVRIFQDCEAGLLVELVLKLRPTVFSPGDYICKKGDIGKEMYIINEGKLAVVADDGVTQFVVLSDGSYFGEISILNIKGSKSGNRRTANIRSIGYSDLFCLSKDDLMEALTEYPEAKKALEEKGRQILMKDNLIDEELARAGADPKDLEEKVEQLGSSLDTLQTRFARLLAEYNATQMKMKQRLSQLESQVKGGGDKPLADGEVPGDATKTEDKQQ
T1 sequence (Q9NQW8 1-809): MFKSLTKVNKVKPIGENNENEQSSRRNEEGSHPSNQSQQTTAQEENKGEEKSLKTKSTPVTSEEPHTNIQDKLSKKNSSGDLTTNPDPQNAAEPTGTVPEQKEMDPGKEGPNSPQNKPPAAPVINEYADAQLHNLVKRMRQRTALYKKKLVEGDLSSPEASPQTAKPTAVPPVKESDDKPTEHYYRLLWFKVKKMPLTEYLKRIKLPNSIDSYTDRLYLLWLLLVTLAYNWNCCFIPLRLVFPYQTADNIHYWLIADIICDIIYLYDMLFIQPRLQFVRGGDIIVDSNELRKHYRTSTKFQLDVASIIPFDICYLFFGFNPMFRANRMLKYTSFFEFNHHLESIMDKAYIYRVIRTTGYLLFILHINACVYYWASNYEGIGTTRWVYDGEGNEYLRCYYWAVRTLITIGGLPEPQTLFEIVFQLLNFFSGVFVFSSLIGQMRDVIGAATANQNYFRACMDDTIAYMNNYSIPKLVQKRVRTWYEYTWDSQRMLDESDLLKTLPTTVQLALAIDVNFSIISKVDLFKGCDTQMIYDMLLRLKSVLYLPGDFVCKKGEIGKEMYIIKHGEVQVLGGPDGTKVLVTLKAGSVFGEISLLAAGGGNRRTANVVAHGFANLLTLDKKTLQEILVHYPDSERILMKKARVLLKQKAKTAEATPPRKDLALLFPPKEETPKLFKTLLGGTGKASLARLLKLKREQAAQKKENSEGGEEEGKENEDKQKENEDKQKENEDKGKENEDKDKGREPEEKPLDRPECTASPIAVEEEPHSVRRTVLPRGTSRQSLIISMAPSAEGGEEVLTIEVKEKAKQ
Description: inside-out patch clamp, Xenopus oocytes, Hill fit. The format is cell-based.

The target of assay [2] is T2, rod CNG channel (CNGA1/CNGB1a) (Bos taurus, UniProt Q00194+Q28181).
T2 construct: heterotetramer 3 CNGA1 : 1 CNGB1a; subunits in pGEMHE, cRNA ratio 1:4, expressed in Xenopus laevis oocytes; inside-out patches
T2 sequence (Q00194 whole entry): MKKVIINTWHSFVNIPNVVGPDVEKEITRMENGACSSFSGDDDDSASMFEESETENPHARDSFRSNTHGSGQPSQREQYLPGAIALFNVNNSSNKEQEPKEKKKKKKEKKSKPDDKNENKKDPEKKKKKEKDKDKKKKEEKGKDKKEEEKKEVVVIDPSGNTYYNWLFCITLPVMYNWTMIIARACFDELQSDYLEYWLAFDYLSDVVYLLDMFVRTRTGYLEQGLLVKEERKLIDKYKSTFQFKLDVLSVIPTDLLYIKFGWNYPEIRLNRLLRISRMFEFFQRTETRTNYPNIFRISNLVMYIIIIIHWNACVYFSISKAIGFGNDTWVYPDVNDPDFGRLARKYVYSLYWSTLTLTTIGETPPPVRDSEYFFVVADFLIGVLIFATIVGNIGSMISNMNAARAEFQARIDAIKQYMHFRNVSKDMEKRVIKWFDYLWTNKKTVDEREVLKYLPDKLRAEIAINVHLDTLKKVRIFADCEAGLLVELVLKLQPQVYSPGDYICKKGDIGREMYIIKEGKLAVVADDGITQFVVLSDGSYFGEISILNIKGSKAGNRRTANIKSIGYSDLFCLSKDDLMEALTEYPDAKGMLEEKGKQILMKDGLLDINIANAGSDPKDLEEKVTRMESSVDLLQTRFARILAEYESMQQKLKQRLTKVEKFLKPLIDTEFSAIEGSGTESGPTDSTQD
T2 sequence (Q28181 whole entry): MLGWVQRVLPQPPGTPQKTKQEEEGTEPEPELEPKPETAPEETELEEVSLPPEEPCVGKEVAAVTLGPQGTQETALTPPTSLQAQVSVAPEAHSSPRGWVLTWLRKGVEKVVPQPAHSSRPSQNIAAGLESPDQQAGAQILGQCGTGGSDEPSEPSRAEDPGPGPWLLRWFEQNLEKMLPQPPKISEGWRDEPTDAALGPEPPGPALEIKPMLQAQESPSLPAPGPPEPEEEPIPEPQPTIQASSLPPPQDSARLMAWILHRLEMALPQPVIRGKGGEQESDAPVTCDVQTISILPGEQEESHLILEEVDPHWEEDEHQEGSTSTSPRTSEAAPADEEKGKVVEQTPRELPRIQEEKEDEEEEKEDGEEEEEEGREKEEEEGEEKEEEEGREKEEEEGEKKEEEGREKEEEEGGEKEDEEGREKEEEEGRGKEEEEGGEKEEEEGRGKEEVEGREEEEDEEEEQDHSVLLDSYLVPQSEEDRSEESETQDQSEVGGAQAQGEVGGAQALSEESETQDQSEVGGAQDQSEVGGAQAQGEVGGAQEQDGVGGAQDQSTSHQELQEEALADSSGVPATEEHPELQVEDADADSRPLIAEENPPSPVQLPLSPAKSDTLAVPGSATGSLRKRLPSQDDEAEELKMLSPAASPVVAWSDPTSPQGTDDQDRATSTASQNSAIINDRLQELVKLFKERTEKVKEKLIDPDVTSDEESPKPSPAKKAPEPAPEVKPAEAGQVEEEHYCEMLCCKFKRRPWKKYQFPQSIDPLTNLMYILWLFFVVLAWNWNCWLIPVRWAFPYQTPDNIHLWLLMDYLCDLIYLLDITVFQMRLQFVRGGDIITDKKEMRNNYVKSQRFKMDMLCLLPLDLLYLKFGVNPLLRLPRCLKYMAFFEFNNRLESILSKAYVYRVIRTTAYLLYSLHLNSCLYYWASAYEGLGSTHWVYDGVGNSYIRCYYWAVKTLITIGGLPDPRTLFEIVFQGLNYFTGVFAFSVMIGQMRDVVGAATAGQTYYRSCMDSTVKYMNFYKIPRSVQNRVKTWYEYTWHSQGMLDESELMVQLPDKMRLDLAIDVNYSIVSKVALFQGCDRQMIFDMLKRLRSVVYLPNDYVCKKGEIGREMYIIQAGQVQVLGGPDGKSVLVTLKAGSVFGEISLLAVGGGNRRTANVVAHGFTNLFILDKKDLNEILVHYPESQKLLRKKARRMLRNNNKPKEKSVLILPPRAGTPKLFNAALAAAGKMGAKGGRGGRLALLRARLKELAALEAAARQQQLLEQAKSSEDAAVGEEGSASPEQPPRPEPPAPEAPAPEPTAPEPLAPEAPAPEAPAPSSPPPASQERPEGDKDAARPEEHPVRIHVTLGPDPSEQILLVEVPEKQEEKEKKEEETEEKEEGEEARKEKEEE
Briefly: inside-out patch clamp, Xenopus oocytes, Hill fit. The format is cell-based. (In patch-clamp work, channel activity is measured electrically.)

The target of assay [3] is T2, rod CNG channel (CNGA1/CNGB1a). Briefly: inside-out patch clamp, Xenopus oocytes, current relative to saturating cGMP. The format is biochemical. The note with it: partial agonist; up to 5 mM analogue vs 3 mM cGMP, pH 7.4, room temperature.
Assay [4] deals with T1, cone CNG channel (CNGA3/CNGB3). The assay is described as above. The format is biochemical. The note with it: partial agonist; saturating analogue vs 1 mM cGMP, pH 7.4, room temperature.

Consider `Nc1nc2c(ncn2[C@@H]2O[C@@H]3COP(=O)(O)O[C@H]3[C@H]2O)c(=O)[nH]1` [cGMP], for which, in assay [1], a half-maximal response (EC50) required 18.7 µM.

Regarding `Nc1nc2c(nc(Br)n2[C@@H]2O[C@@H]3COP(=O)(O)O[C@H]3[C@H]2O)c(=O)[nH]1` [compound 1, 8-Br-cGMP], the EC50 was 6.18 µM in assay [2] and 1.04 µM in assay [1] (channel activation (agonist), +100 mV, pH 7.4, room temperature).

In the case of `Nc1nc(=O)c2nc(Sc3ccc(Cl)cc3)n([C@@H]3O[C@@H]4COP(=O)(O)O[C@H]4[C@H]3O)c2[nH]1` [compound 2, 8-pCPT-cGMP], the results for the concentration for a half-maximal effect (EC50) in assay [2] and in assay [1] were 0.77 µM and 0.09 µM, respectively.

For the compound `O=c1c2ncn([C@@H]3O[C@@H]4COP(=O)(O)O[C@H]4[C@H]3O)c2nc2[nH]c(-c3ccccc3)cn12` [compound 3, PET-cGMP], the “% activation relative to cGMP” value in assay [3] was ~ 41.2%; in assay [4], “PET-cGMP, Rp-cGMPS, Sp-cGMPS, and Sp-8-pCPT-cGMPS, was only partially effective when activating cone CNG channels”.

With `Nc1nc2c(ncn2[C@@H]2O[C@@H]3COP(O)(=S)O[C@H]3[C@H]2O)c(=O)[nH]1` (stereo partly shown) [compound 4, Rp-cGMPS], the “% activation relative to cGMP” value was ~ 11% in assay [3] and ~ 43.6% in assay [4].

On to `Nc1nc2c(ncn2[C@@H]2O[C@@H]3CO[P@](O)(=S)O[C@H]3[C@H]2O)c(=O)[nH]1` [compound 5, Sp-cGMPS], for which the “% activation relative to cGMP” value in assay [3] is ~ 62.8%. The same compound gave an EC50 in assay [1] of 2.88 µM.

On to `Nc1nc2c(nc(Sc3ccc(Cl)cc3)n2[C@@H]2O[C@@H]3CO[P@](O)(=S)O[C@H]3[C@H]2O)c(=O)[nH]1` [compound 7, Sp-8-pCPT-cGMPS], for which the EC50 in assay [2] is 42.8 µM; in assay [1], 131 µM.
